Measurements from patent US20190309272A1, “Genetically Modified Cell Lines Including a TP53 Modification and Methods of Use” (UNIVERSITY OF SOUTH CAROLINA, priority 2018, published 2019).
Structures can show the parent of a compound that is named as a salt. Where two headings read alike, the source gives them in different places.

What was measured:
Format in all cases: cell-based, Human
MCF7 WT Parental pool = test: Drug screening, resazurin, MCF7 wild type parental pool
MCF7 TP53 KO 3.4 pool = test: Drug screening, resazurin, TP53 KO 3.4 pool
MCF7 TP53 KO 5.6 pool = test: Drug screening, resazurin, TP53 KO 5.6 pool
[1] = ten-day drug treatment, 156.25 nM to 10 μM, resazurin fluorescence

**Q.** For `O=C(CCBr)N1CCN(C(=O)CCBr)CC1` [Pipobroman], which “MCF7 WT Parental pool (AUC)” value (MCF7 WT Parental pool; [1]) is on record?
**A.** 8.767

**Q.** What about the “TP53 KO 3.4 pool (AUC)” value (MCF7 TP53 KO 3.4 pool; [1]) of the same compound?
**A.** 8.997

**Q.** And the “TP53 KO 5.6 pool (AUC)” value (MCF7 TP53 KO 5.6 pool; [1])?
**A.** 7.66

**Q.** Which “MCF7 WT Parental pool (AUC)” value (MCF7 WT Parental pool; [1]) does the source give for `c1cc(CN2CCCNCCNCCCNCC2)ccc1CN1CCCNCCNCCCNCC1` [Plerixafor] here?
**A.** 9

**Q.** What about the “TP53 KO 3.4 pool (AUC)” value (MCF7 TP53 KO 3.4 pool; [1]) of the same compound?
**A.** 8.893

**Q.** And the “TP53 KO 5.6 pool (AUC)” value (MCF7 TP53 KO 5.6 pool; [1])?
**A.** 8.524

**Q.** For `Nc1cccc2c1C(=O)N(C1CCC(=O)NC1=O)C2=O` (stereo not drawn) [Pomalidomide], which “MCF7 WT Parental pool (AUC)” value (MCF7 WT Parental pool; [1]) is on record?
**A.** 10.08

**Q.** What about the “TP53 KO 3.4 pool (AUC)” value (MCF7 TP53 KO 3.4 pool; [1]) of the same compound?
**A.** 9.902

**Q.** And the “TP53 KO 5.6 pool (AUC)” value (MCF7 TP53 KO 5.6 pool; [1])?
**A.** 10.13

**Q.** Which “MCF7 WT Parental pool (AUC)” value (MCF7 WT Parental pool) does the source give for `Cc1ccc(C(=O)Nc2ccc(CN3CCN(C)CC3)c(C(F)(F)F)c2)cc1C#Cc1cnc2cccnn12` [Ponatinib] here?
**A.** 3.312

**Q.** What about the “TP53 KO 3.4 pool (AUC)” value (MCF7 TP53 KO 3.4 pool) of the same compound?
**A.** 2.944

**Q.** And the “TP53 KO 5.6 pool (AUC)” value (MCF7 TP53 KO 5.6 pool)?
**A.** 3.632

**Q.** What does the source list for `C#CCC(Cc1cnc2nc(N)nc(N)c2n1)c1ccc(C(=O)N[C@@H](CCC(=O)O)C(=O)O)cc1` (stereo partly drawn) [Pralatrexate]?
**A.** MCF7 WT Parental pool (AUC) (MCF7 WT Parental pool; [1]): 2.822; TP53 KO 3.4 pool (AUC) (MCF7 TP53 KO 3.4 pool; [1]): 2.774; TP53 KO 5.6 pool (AUC) (MCF7 TP53 KO 5.6 pool; [1]): 2.86

**Q.** What does the source list for `CNNCc1ccc(C(=O)NC(C)C)cc1` [Procarbazine Hydrochloride]?
**A.** MCF7 WT Parental pool (AUC) (MCF7 WT Parental pool; [1]): 8.119; TP53 KO 3.4 pool (AUC) (MCF7 TP53 KO 3.4 pool; [1]): 10.04; TP53 KO 5.6 pool (AUC) (MCF7 TP53 KO 5.6 pool; [1]): 10.7

**Q.** `O=C(c1ccc(OCCN2CCCCC2)cc1)c1c(-c2ccc(O)cc2)sc2cc(O)ccc12` [Raloxifene] was tested. Which “MCF7 WT Parental pool (AUC)” value (MCF7 WT Parental pool; [1]) did it give?
**A.** 5.361

**Q.** And the “TP53 KO 3.4 pool (AUC)” value (MCF7 TP53 KO 3.4 pool; [1])?
**A.** 6.017

**Q.** And the “TP53 KO 5.6 pool (AUC)” value (MCF7 TP53 KO 5.6 pool; [1])?
**A.** 6.562

**Q.** Which results are given for `CNC(=O)c1cc(Oc2ccc(NC(=O)Nc3ccc(Cl)c(C(F)(F)F)c3)c(F)c2)ccn1` [Regorafenib]?
**A.** MCF7 WT Parental pool (AUC) (MCF7 WT Parental pool; [1]): 3.995; TP53 KO 3.4 pool (AUC) (MCF7 TP53 KO 3.4 pool; [1]): 5.541; TP53 KO 5.6 pool (AUC) (MCF7 TP53 KO 5.6 pool; [1]): 5.25

**Q.** What does the source list for `C/C=C1\NC(=O)[C@H]2CSSCC/C=C/[C@H](CC(=O)N[C@H](C(C)C)C(=O)N2)OC(=O)[C@H](C(C)C)NC1=O` [Romidepsin]?
**A.** MCF7 WT Parental pool (AUC) (MCF7 WT Parental pool): 0.5862; TP53 KO 3.4 pool (AUC) (MCF7 TP53 KO 3.4 pool): 0.6551; TP53 KO 5.6 pool (AUC) (MCF7 TP53 KO 5.6 pool): 0.5264

**Q.** For `CN1CCN(C(=O)c2ccc3cc(CCNc4ncnc5ccc(C#N)cc45)ccc3c2)CC1` [SenexinB], which “MCF7 WT Parental pool (AUC)” value (MCF7 WT Parental pool; [1]) is on record?
**A.** 5.203

**Q.** And the “TP53 KO 3.4 pool (AUC)” value (MCF7 TP53 KO 3.4 pool; [1])?
**A.** 6.869

**Q.** What about the “TP53 KO 5.6 pool (AUC)” value (MCF7 TP53 KO 5.6 pool; [1]) of the same compound?
**A.** 6.954

**Q.** `CO[C@H]1C[C@@H]2CC[C@@H](C)[C@@](O)(O2)C(=O)C(=O)N2CCCC[C@H]2C(=O)O[C@H]([C@H](C)C[C@@H]2CC[C@@H](O)[C@H](OC)C2)CC(=O)[C@H](C)/C=C(\C)[C@@H](O)[C@@H](OC)C(=O)[C@H](C)C[C@H](C)/C=C/C=C/C=C/1C` [Sirolimus] was tested. Which “MCF7 WT Parental pool (AUC)” value (MCF7 WT Parental pool; [1]) did it give?
**A.** 2.534

**Q.** And the “TP53 KO 3.4 pool (AUC)” value (MCF7 TP53 KO 3.4 pool; [1])?
**A.** 2.623

**Q.** And the “TP53 KO 5.6 pool (AUC)” value (MCF7 TP53 KO 5.6 pool; [1])?
**A.** 3.106

**Q.** How did the “MCF7 WT Parental pool (AUC)” value (MCF7 WT Parental pool; [1]) turn out when `CN(N=O)C(=O)N[C@@H](C=O)[C@@H](O)[C@H](O)[C@H](O)CO` [Streptozocin] was run?
**A.** 9.145

**Q.** And the “TP53 KO 3.4 pool (AUC)” value (MCF7 TP53 KO 3.4 pool; [1])?
**A.** 10.58

**Q.** And the “TP53 KO 5.6 pool (AUC)” value (MCF7 TP53 KO 5.6 pool; [1])?
**A.** 9.912

**Q.** `CCN(CC)CCNC(=O)c1c(C)[nH]c(/C=C2\C(=O)Nc3ccc(F)cc32)c1C` [Sunitinib] was tested. Which “MCF7 WT Parental pool (AUC)” value (MCF7 WT Parental pool; [1]) did it give?
**A.** 3.556

**Q.** What about the “TP53 KO 3.4 pool (AUC)” value (MCF7 TP53 KO 3.4 pool; [1]) of the same compound?
**A.** 3.076

**Q.** What about the “TP53 KO 5.6 pool (AUC)” value (MCF7 TP53 KO 5.6 pool; [1]) of the same compound?
**A.** 3.758

**Q.** Which “MCF7 WT Parental pool (AUC)” value (MCF7 WT Parental pool; [1]) does the source give for `CC/C(=C(\c1ccccc1)c1ccc(OCCN(C)C)cc1)c1ccccc1` [TamoxifenCitrate] here?
**A.** 7.863

**Q.** And the “TP53 KO 3.4 pool (AUC)” value (MCF7 TP53 KO 3.4 pool; [1])?
**A.** 5.949

**Q.** And the “TP53 KO 5.6 pool (AUC)” value (MCF7 TP53 KO 5.6 pool; [1])?
**A.** 7.798

**Q.** How did the “MCF7 WT Parental pool (AUC)” value (MCF7 WT Parental pool; [1]) turn out when `Cn1nnc2c(C(N)=O)ncn2c1=O` [Temozolomide] was run?
**A.** 9.187

**Q.** And the “TP53 KO 3.4 pool (AUC)” value (MCF7 TP53 KO 3.4 pool; [1])?
**A.** 9.565

**Q.** What about the “TP53 KO 5.6 pool (AUC)” value (MCF7 TP53 KO 5.6 pool; [1]) of the same compound?
**A.** 10.06

**Q.** For `COc1cc([C@@H]2c3cc4c(cc3[C@@H](O[C@@H]3O[C@@H]5CO[C@@H](c6cccs6)O[C@H]5[C@H](O)[C@H]3O)[C@H]3COC(=O)[C@H]23)OCO4)cc(OC)c1O` [Teniposide], which “MCF7 WT Parental pool (AUC)” value (MCF7 WT Parental pool; [1]) is on record?
**A.** 1.342

**Q.** What about the “TP53 KO 3.4 pool (AUC)” value (MCF7 TP53 KO 3.4 pool; [1]) of the same compound?
**A.** 0.9417

**Q.** And the “TP53 KO 5.6 pool (AUC)” value (MCF7 TP53 KO 5.6 pool; [1])?
**A.** 1.041

**Q.** Which “MCF7 WT Parental pool (AUC)” value (MCF7 WT Parental pool; [1]) does the source give for `O=C1CCC(N2C(=O)c3ccccc3C2=O)C(=O)N1` (stereo not drawn) [Thalidomide] here?
**A.** 7.13

**Q.** What about the “TP53 KO 3.4 pool (AUC)” value (MCF7 TP53 KO 3.4 pool; [1]) of the same compound?
**A.** 9.18

**Q.** And the “TP53 KO 5.6 pool (AUC)” value (MCF7 TP53 KO 5.6 pool; [1])?
**A.** 10.21

**Q.** What does the source list for `S=P(N1CC1)(N1CC1)N1CC1` [Thiotepa]?
**A.** MCF7 WT Parental pool (AUC) (MCF7 WT Parental pool): 3.965; TP53 KO 3.4 pool (AUC) (MCF7 TP53 KO 3.4 pool): 5.443; TP53 KO 5.6 pool (AUC) (MCF7 TP53 KO 5.6 pool): 5.535
